# According to US9404081B2, “Pyruvate kinase activators for use in therapy” (AGIOS PHARMACEUTICALS, INC., priority 2011, dated 2016):
# How the values were obtained:
# Type in all cases: biochemical
# PKR R532W = PKR R532W (Homo sapiens, UniProt P30613, R532W); assay: PKR R532W Single Point Percent Activation Assay; settings: read-out: Act, % 532W
# Protocol: PKR R532W Single Point Percent Activation Assay
# (§1) A compound described herein was diluted with DMSO and tested at 1 μM concentration. The enzyme was diluted in 1× Buffer: (100 mM KCl, 50 mM Tris 7.5, 5 mM MgCl2, 1 mM DTT, 0.03% BSA). 2 μL of compound solution was first added into wells, and then 180 μL of enzyme solution was added. Assays were assembled except for ADP, and plates were stored for 60 minutes at RT. 20 μL ADP was added to start the assay and assay output was evaluated using OD340 at SpectraMax. The assay was run at room temperature.
# Final concentration: PKR R532W (100 ng/well), Tris pH 7.5 (50 mM), KCl (100 mM), MgCl2 (5 mM), ADP (0.36 mM), PEP (0.1 mM), NADH (180 μM), LDH (0.5 units, Sigma 59023), DTT (1 mM) and BSA (0.03%).
# PKR T384W = PKR T384W (Homo sapiens, UniProt P30613, T384W); assay: PKR T384W Single Point Percent Activation Assay; settings: read-out: Act. % 384W
# Sequence of PKR T384W (P30613 whole entry T384W): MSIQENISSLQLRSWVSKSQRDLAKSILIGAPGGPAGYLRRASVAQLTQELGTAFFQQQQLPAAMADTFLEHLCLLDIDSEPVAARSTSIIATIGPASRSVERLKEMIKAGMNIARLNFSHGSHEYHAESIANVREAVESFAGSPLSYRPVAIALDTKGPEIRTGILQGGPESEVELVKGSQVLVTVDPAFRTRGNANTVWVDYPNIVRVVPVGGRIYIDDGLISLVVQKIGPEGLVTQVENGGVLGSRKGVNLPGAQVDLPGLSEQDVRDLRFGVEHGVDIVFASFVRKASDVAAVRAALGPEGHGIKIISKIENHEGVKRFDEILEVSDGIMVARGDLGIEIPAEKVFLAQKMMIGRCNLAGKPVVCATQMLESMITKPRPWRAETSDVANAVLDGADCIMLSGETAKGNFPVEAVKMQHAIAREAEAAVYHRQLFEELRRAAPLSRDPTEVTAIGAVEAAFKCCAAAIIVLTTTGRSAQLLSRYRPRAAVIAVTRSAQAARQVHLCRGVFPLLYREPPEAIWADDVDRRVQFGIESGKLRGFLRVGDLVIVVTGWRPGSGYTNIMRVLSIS
# Protocol: PKR T384W Single Point Percent Activation Assay
# as §1, with “180 μL enzyme solution” for “180 μL of enzyme solution”
# Final concentration: PKR T384W soluble (300 ng/well), Tris pH 7.5 (50 mM), KCl (100 mM), MgCl2 (5 mM), ADP (0.08 mM), PEP (0.23 mM), NADH (180 μM), LDH (0.5 units, Sigma 59023), DTT (1 mM) and BSA (0.03%).
# PKR wt = PKR wt (Homo sapiens, UniProt P30613); assay: PKR WT Single Point Percent Activation Assay
# Sequence of PKR wt (P30613 whole entry): as the sequence (P30613 whole entry T384W) above, with W384T counted along it
# Protocol: PKR WT Single Point Percent Activation Assay
# as §1
# Final concentration: PKR wt (100 ng/well), Tris pH 7.5 (50 mM), KCl (100 mM), MgCl2 (5 mM), ADP (0.48 mM), PEP (0.15 mM), NADH (180 μM), LDH (0.5 units, Sigma 59023), DTT (1 mM) and BSA (0.03%).
# PKR R510Q = PKR R510Q (Homo sapiens, UniProt P30613, R510Q); assay: PKR R510Q Single Point Percent Activation Assay; settings: read-out: Act. % 510Q
# Sequence of PKR R510Q (P30613 whole entry R510Q): as the sequence (P30613 whole entry T384W) above, with W384T, R510Q counted along it
# Protocol: PKR R510Q Single Point Percent Activation Assay
# as §1
# Final concentration: PKR R510Q (40 ng/well), Tris pH 7.5 (50 mM), KCl (100 mM), MgCl2 (5 mM), ADP (0.2 mM), PEP (0.11 mM), NADH (180 μM), LDH (0.5 units, Sigma 59023), DTT (1 mM) and BSA (0.03%).
# Sequence of PKR R532W (P30613 whole entry R532W): as the sequence (P30613 whole entry T384W) above, with W384T, R532W counted along it
SMILES,activation at 1 µM (PKR R532W) [%],activation at 1 µM (PKR T384W) [%],activation at 1 µM (PKR wt) [%],activation at 1 µM (PKR R510Q) [%]
C[C@@H]1CN(C(=O)c2ccc(NS(=O)(=O)c3cccc4cccnc34)cc2)C[C@H](C)N1C(=O)c1ccccn1,101 to 500,101 to 500,101 to 500,101 to 500
CC(C)COC(=O)N1[C@H](C)CN(C(=O)c2ccc(NS(=O)(=O)c3cccc4cccnc34)cc2)C[C@@H]1C,1 to 100,101 to 500,101 to 500,101 to 500
CC(C)OC(=O)N1CCN(C(=O)c2ccc(NS(=O)(=O)c3cccc4cccnc34)cc2)[C@@H](C)C1,101 to 500,1 to 100,1 to 100,101 to 500
C[C@H]1CN(C(=O)OCC2CC2)CCN1C(=O)c1ccc(NS(=O)(=O)c2cccc3cccnc23)cc1,101 to 500,101 to 500,101 to 500,1 to 100
C[C@@H]1CN(C(=O)OCC2CC2)CCN1C(=O)c1ccc(NS(=O)(=O)c2cccc3cccnc23)cc1,101 to 500,1 to 100,1 to 100,1 to 100
COc1ccccc1N1C[C@@H](C)N(C(=O)c2ccc(NS(=O)(=O)c3cccc4cccnc34)cc2)[C@@H](C)C1,101 to 500,101 to 500,101 to 500,101 to 500
C[C@@H]1CN(CC2CC2)CCN1C(=O)c1ccc(NS(=O)(=O)c2cccc3cccnc23)cc1,1 to 100,101 to 500,101 to 500,101 to 500
C[C@@H]1CN(CC2CCCC2)CCN1C(=O)c1ccc(NS(=O)(=O)c2cccc3cccnc23)cc1,1 to 100,101 to 500,1 to 100,1 to 100
C[C@@H]1CN(CC2CCOC2)CCN1C(=O)c1ccc(NS(=O)(=O)c2cccc3cccnc23)cc1 (stereo partly drawn),101 to 500,101 to 500,101 to 500,101 to 500
C[C@@H]1CN(C(=O)c2ccccn2)C[C@H](C)N1C(=O)c1ccc(NS(=O)(=O)c2cccc3cccnc23)cc1,1 to 100,1 to 100,101 to 500,1 to 100
CCOC(=O)N1[C@H](C)CN(C(=O)c2ccc(NS(=O)(=O)c3cccc4cccnc34)cc2)C[C@@H]1C,101 to 500,101 to 500,101 to 500,101 to 500
C[C@@H]1CN(Cc2ccc(F)c(F)c2F)CCN1C(=O)c1ccc(NS(=O)(=O)c2cccc3cccnc23)cc1,1 to 100,101 to 500,1 to 100,101 to 500
C[C@@H]1CN(Cc2cc(F)cc(F)c2)CCN1C(=O)c1ccc(NS(=O)(=O)c2cccc3cccnc23)cc1,1 to 100,1 to 100,1 to 100,1 to 100
C[C@@H]1CN(Cc2cc(F)c(F)cc2F)CCN1C(=O)c1ccc(NS(=O)(=O)c2cccc3cccnc23)cc1,1 to 100,1 to 100,1 to 100,1 to 100
C[C@@H]1CN(C(=O)OCCC2CCCCC2)CCN1C(=O)c1ccc(NS(=O)(=O)c2cccc3cccnc23)cc1,1 to 100,1 to 100,1 to 100,1 to 100
C[C@@H]1CN(C(=O)OCCC2CCCC2)CCN1C(=O)c1ccc(NS(=O)(=O)c2cccc3cccnc23)cc1,1 to 100,1 to 100,1 to 100,1 to 100
C[C@@H]1CN(C(=O)OC2CCCCC2)CCN1C(=O)c1ccc(NS(=O)(=O)c2cccc3cccnc23)cc1,1 to 100,1 to 100,1 to 100,1 to 100
C[C@@H]1CN(C(=O)OC2CCOCC2)CCN1C(=O)c1ccc(NS(=O)(=O)c2cccc3cccnc23)cc1,1 to 100,1 to 100,1 to 100,1 to 100

SMILES,activation at 1 µM (PKR R532W) [%],activation at 1 µM (PKR T384W) [%],activation at 1 µM (PKR wt) [%],activation at 1 µM (PKR R510Q) [%]
C[C@@H]1CN(Cc2ccc(Cl)c(F)c2)CCN1C(=O)c1ccc(NS(=O)(=O)c2cccc3cccnc23)cc1,101 to 500,1 to 100,101 to 500,1 to 100
C[C@@H]1CN(C(=O)O[C@@H]2CCOC2)CCN1C(=O)c1ccc(NS(=O)(=O)c2cccc3cccnc23)cc1,101 to 500,1 to 100,101 to 500,1 to 100
CC1CN(CC2CCOC2)CC(C)N1C(=O)c1ccc(NS(=O)(=O)c2cccc3cccnc23)cc1 (stereo not drawn),1 to 100,1 to 100,1 to 100,101 to 500
C[C@@H]1CN(CC2CCC2)CCN1C(=O)c1ccc(NS(=O)(=O)c2cccc3cccnc23)cc1,101 to 500,1 to 100,101 to 500,101 to 500
C[C@H]1CN(CC2CCC2)CCN1C(=O)c1ccc(NS(=O)(=O)c2cccc3cccnc23)cc1,101 to 500,101 to 500,101 to 500,101 to 500
C[C@@H]1CN(C[C@@H]2CCCO2)CCN1C(=O)c1ccc(NS(=O)(=O)c2cccc3cccnc23)cc1,101 to 500,101 to 500,101 to 500,101 to 500
C[C@@H]1CN(C[C@H]2CCCO2)CCN1C(=O)c1ccc(NS(=O)(=O)c2cccc3cccnc23)cc1,101 to 500,101 to 500,101 to 500,1 to 100
O=C(c1ccc(NS(=O)(=O)c2cccc3cccnc23)cc1)N1C2CCC1CN(Cc1ccccc1)C2,101 to 500,101 to 500,101 to 500,101 to 500
O=C1CN(C(=O)c2ccc(NS(=O)(=O)c3cccc4cccnc34)cc2)CCN1CC1CC1,1 to 100,101 to 500,101 to 500,1 to 100
O=C1CN(C(=O)c2ccc(NS(=O)(=O)c3cccc4cccnc34)cc2)CCN1Cc1cc(F)cc(F)c1,101 to 500,101 to 500,101 to 500,101 to 500
O=C(c1ccc(NS(=O)(=O)c2cccc3cccnc23)cc1)N1CC2CCC(C1)N2Cc1cc(F)cc(F)c1,1 to 100,101 to 500,101 to 500,101 to 500
O=C(c1ccc(NS(=O)(=O)c2cccc3cccnc23)cc1)N1CC2CCC(C1)N2Cc1ccc(F)cc1,1 to 100,1 to 100,101 to 500,101 to 500
O=C(c1ccc(NS(=O)(=O)c2cccc3cccnc23)cc1)N1CC2CCC(C1)N2Cc1ccccc1,101 to 500,101 to 500,101 to 500,101 to 500
O=C(c1ccc(NS(=O)(=O)c2cccc3cccnc23)cc1)N1CC2CCC(C1)N2CC1CC1,101 to 500,101 to 500,1 to 100,101 to 500
O=C(c1ccc(NS(=O)(=O)c2cccc3cccnc23)cc1)N1CCn2c(nnc2-c2cc(F)cc(F)c2)C1,101 to 500,101 to 500,101 to 500,101 to 500
O=C(c1ccc(NS(=O)(=O)c2cccc3cccnc23)cc1)N1C2CCC1CN(Cc1ccc(F)cc1)C2,1 to 100,101 to 500,1 to 100,101 to 500
O=C(c1ccc(NS(=O)(=O)c2cccc3cccnc23)cc1)N1C2CCC1CN(Cc1cc(F)cc(F)c1)C2,101 to 500,101 to 500,101 to 500,101 to 500
O=C(c1ccc(NS(=O)(=O)c2cccc3cccnc23)cc1)N1C2CCC1CN(CC1CC1)C2,101 to 500,101 to 500,101 to 500,1 to 100
